Laboratory results as given in US7790196B2, “Extracellular vesicles from non-pathogenic amoebae useful as vehicle for transferring a molecule of interest to an eukaryotic cell” (Universite Pierre et Marie Curie- Paris VI, priority 2003, dated 2010).

Tests used:
[1] = test system: Leukemic K562 cells; conditions: Asahi et al., 1995; cited from earlier work
[2] = test system: Dd cells; assay: Cytotoxicity of the cargo molecule towards growing Dd cells (cell counting during growth); format: cell-based, Dictyostelium discoideum
Description: The growth curve of Dd cells, continuously maintained with HO342 (10 μg/ml) since the initiation of the culture at a density of 3×10^6 cells/ml is shown on FIG. 3a. Images of Dd cells, fixed in 70% MeOH at different times (from 72 h to 216 h), show the aspect of the cells and of their HO342 stained nuclei. Apoptosis might increase as a function of time along the stationary plateau (Tatischeff et al., 2001), and the characteristic much smaller size of apoptotic cells were predominant for the t′216 fixed Dd cells (FIG. 3a).
The capacity of Dd cells to internalise different exogenous molecules was studied. Further, their ability to release vesicles, in particular the “12,000” vesicles, carrying a broad-spectrum of molecules of interest was assessed. Flow cytometry and micro-spectrofluorimetry were used to measure respectively the cell internalisation and the vesicle-mediated release of the fluorescent cargo molecule as a function of incubation time in the growth medium. Growing Dd cells were incubated for different periods of time up to 72 h in the presence of the exogenous molecule. Fractions of the cells were fixed in 2% paraformaldehyde after each one of these increasing incubation times. Simultaneously, the externalised “12,000” vesicles were prepared from aliquots of the growth medium and concentrated (×20). […]

[3] = test system: Dd cells; assay: Vesicle-mediated release of cargo molecule from Dd cells (micro-spectrofluorimetry of “12,000” vesicles); format: cell-based, Dictyostelium discoideum
Description: The capacity of Dd cells to internalise different exogenous molecules was studied. Further, their ability to release vesicles, in particular the “12,000” vesicles, carrying a broad-spectrum of molecules of interest was assessed. Flow cytometry and micro-spectrofluorimetry were used to measure respectively the cell internalisation and the vesicle-mediated release of the fluorescent cargo molecule as a function of incubation time in the growth medium. Growing Dd cells were incubated for different periods of time up to 72 h in the presence of the exogenous molecule. Fractions of the cells were fixed in 2% paraformaldehyde after each one of these increasing incubation times. Simultaneously, the externalised “12,000” vesicles were prepared from aliquots of the growth medium and concentrated (×20). As controls, Dd cells were grown in parallel without the cargo molecule and handled the same. Moreover, cell counting during growth allowed to check for any cytotoxicity of the studied molecule as a function of time. Cell and vesicle samples were kept at 4° C. until measurements.

CCCCCC(=O)c1c(O)c(Cl)c(OC)c(Cl)c1O [DIF]
differentiation of K562 cells [1]: differentiate and recover the capacity to synthesize haemoglobin

CCOc1ccc(-c2nc3ccc(-c4nc5ccc(N6CCN(C)CC6)cc5[nH]4)cc3[nH]2)cc1 [HO342, Hoechst 33342]
cytotoxicity during incubation with Dd cells in the growth medium ([2]; HO342 10 μg/ml, continuously since initiation of culture): absence of cytotoxicity

Cc1cc(O)c2c(=O)c3c(O)cc(O)c4c5c(O)cc(O)c6c(=O)c7c(O)cc(C)c8c1c2c(c34)c(c78)c65 [hypericin]
toxicity towards Dd cells ([2]; hypericin 25 μM in growth medium): without any apparent toxicity

COc1cccc2c1C(=O)c1c(O)c3c(c(O)c1C2=O)C[C@@](O)(C(=O)CO)C[C@@H]3O[C@H]1C[C@H](N)[C@H](O)[C@H](C)O1 [Doxorubicine]
release of the molecule into vesicles [3]: also released into “12,000” vesicles
